Assays:
[1] = target: T1, Phospho-DNA-PK in FaDu Cells (Homo sapiens, UniProt P78527); assay: Effect of compounds on phospho-DNA-PK in FaDu cells (MesoScale sandwich immunoassay); format: cell-based; details: 1 hour pre-incubation, 1 μg/ml Neocarzinostatin 2 hours, averaged values, read-out: MSD FaDu IC50
T1 construct: host or cells: FaDu
Description: Effect of Compounds on Phospho-DNA-PK in FaDu Cells
All compounds tested were dissolved in DMSO and further dilutions were made in culture medium. Final DMSO concentration was 0.3% (v/v). The human FaDu cells (ATCC) were cultured in MEM medium supplemented with Glutamax and 10% fetal calf serum (PAA). Cells were routinely maintained at densities of 0.2×10^6 cells per ml at 37° C. in a humidified 5% CO2, 95% air atmosphere. Cells were passaged twice a week, splitting back to obtain the low density. Cells were seeded in 96 well plates (Corning 3904) at 1×10^6 cells per ml media in a volume of 50 μl per well. Seeded cells were incubated at 37° C. in a humidified 5% CO2, 95% air atmosphere for 24 hours. Compounds were added (25 μl) to the cells and pre-incubated for 1 hour. 1 μg/ml DNA-damaging agent Neocarzinostatin (NCS) was added (25 μl) to a final volume of 100 μl and incubated for 2 hours at 37° C. in a humidified 5% CO2, 95% air atmosphere. After this period of time plates were removed from the incubator and the 100 μl dilutions were removed from the wells gently, prior to the addition of 75 μl cold RIPA lysis buffer with protease and phosphatase inhibitors to achieve the cells lysis, followed by shaking on a plate shaker at 4° C. for 30 minutes. At the end of this incubation, lysate was assessed for phospho-DNA-PK levels by sandwich immune-assay carried out in anti-mouse antibody coated MesoScale plates. […] Signal obtained in the wells containing blank samples was subtracted from all other wells and IC50 values were determined by fitting a sigmoidal curve to % inhibition of control versus Logo compound concentration.

DNA-PK kinase = DNA-PK kinase (Homo sapiens, UniProt P78527); assay: Inhibition of DNA-PK kinase activity (ADP-Glo); format: biochemical; details: averaged values over all measurements on all batches; 150 μM ATP, 1 hour at 25° C.
Description: Inhibition of DNA-PK Kinase Activity Assay buffer was 50 mM Hepes pH 7.5 containing 0.1 mg/ml BSA (albumin from bovine serum), 50 μM DTT (dithiothreitol), 20 mM MgCl2 and 10 μg/ml calf thymus DNA (activation buffer). Kinase reaction was carried out in OptiPlate 384 plates (PerkinElmer 6007299). All compounds tested were dissolved in dimethyl sulfoxide (DMSO) and further dilutions were made in assay buffer. Final DMSO concentration was 1% (v/v). Pre-incubation consisted of compound (1% DMSO in control and blank wells) and 24 ng/well DNA-PK kinase to allow the compounds to bind the enzyme (with buffer in the blank wells) for 15 minutes; after this time 150 μM Adenosine-5′-triphosphate (ATP) and 0.2 μg/μl DNA-PK substrate were added to commence the kinase reaction. Incubations were carried out for 1 hour at 25° C. Kinase activity was determined by using ADP-Glo™ reagent from Promega according to the manufacturer's instructions. The light generated was measured using a luminometer (EnVision, PerkinElmer). Signal obtained in the wells containing blank samples was subtracted from all other wells and IC50 values were determined by fitting a sigmoidal curve to % inhibition of control versus Log10 compound concentration.

## CNC(=O)N1CC(COc2nc(N3CCOCC3)cc3ncccc23)C1 [Example 148]
[1]
  IC50: 4920 nM
DNA-PK kinase
  IC50: 171 nM

## OCc1ccnc(NCC2CCN(c3nc(N4CCOCC4)cc4ncccc34)CC2)n1 [Example 116]
DNA-PK kinase
  IC50: 124 nM

## Cc1nnc([C@H]2CC[C@@H](Oc3nc(N4CCOCC4)cc4ncccc34)CC2)[nH]1 [Example 70]
[1]
  IC50: 113 nM
DNA-PK kinase
  IC50: 1 nM

## c1cnc(NCC2CCN(c3nc(N4CCOCC4)cc4ncccc34)CC2)nc1 [Example 2]
[1]
  IC50: 743 nM
DNA-PK kinase
  IC50: 39 nM

## c1cnc(N2CCC23CCN(c2nc(N4CCOCC4)cc4ncccc24)C3)nc1 (stereo not drawn) [Example 29]
DNA-PK kinase
  IC50: 345 nM

## c1cnc2cc(N3CCOCC3)nc(OC[C@H]3CC[C@@H](c4ncn[nH]4)CC3)c2c1 [Example 73]
[1]
  IC50: 1730 nM
DNA-PK kinase
  IC50: 55 nM

## Fc1ccnc(NCC2CCN(c3nc(N4CCOCC4)cc4ncccc34)CC2)c1 [Example 132]
[1]
  IC50: 10600 nM
DNA-PK kinase
  IC50: 82 nM

## C[C@@H]1CN(c2ncn[nH]2)CC[C@@H]1Oc1nc(N2CCOCC2)cc2ncccc12 (single isomer, unassigned) [Parent compound 160]
DNA-PK kinase
  IC50: 493 nM

## N#C[C@H]1CC[C@@H](Oc2nc(N3CCOCC3)cc3ncccc23)CC1 [Example 4]
[1]
  IC50: 1830 nM
DNA-PK kinase
  IC50: 37 nM

## c1cnc2cc(N3CCOCC3)nc(N3CCC(CNc4ccncn4)CC3)c2c1 [Example 120]
[1]
  IC50: 3180 nM
DNA-PK kinase
  IC50: 140 nM

## COc1ccc(COc2nc(N3CCOCC3)cc3ncccc23)cc1 [Example 53]
DNA-PK kinase
  IC50: 242 nM

## c1cnc2cc(N3CCOCC3)nc(O[C@H]3CC[C@@H](n4ccnc4)CC3)c2c1 [Example 77]
[1]
  IC50: 104 nM
DNA-PK kinase
  IC50: 6 nM

## c1cnc2cc(N3CCOCC3)nc(N3CCCCC3)c2c1 [Example 32]
DNA-PK kinase
  IC50: 523 nM

## COc1ccnc(NCC2CCN(c3nc(N4CCOCC4)cc4ncccc34)CC2)n1 [Example 111]
[1]
  IC50: 2140 nM
DNA-PK kinase
  IC50: 88 nM

## c1cnc(NCCC2CCN(c3nc(N4CCOCC4)cc4ncccc34)CC2)nc1 [Example 130]
[1]
  IC50: 2530 nM
DNA-PK kinase
  IC50: 48 nM

## Cc1cc(C(N)=O)nc(NCC2CCN(c3nc(N4CCOCC4)cc4ncccc34)CC2)n1 [Example 101]
[1]
  IC50: 2130 nM
DNA-PK kinase
  IC50: 32 nM

## c1cnc(N[C@H]2[C@@H]3CN(c4nc(N5CCOCC5)cc5ncccc45)C[C@@H]32)nc1 [Example 12]
[1]
  IC50: 2550 nM
DNA-PK kinase
  IC50: 70 nM

## c1cnc2cc(N3CCOCC3)nc(N[C@H]3CC[C@@H](c4nnc[nH]4)CC3)c2c1 [Example 58]
[1]
  IC50: 1590 nM
DNA-PK kinase
  IC50: 27 nM

## Oc1cnc2cc(N3CCOCC3)nc(O[C@H]3CC[C@@H](c4cccs4)CC3)c2c1 [Example 164]
[1]
  IC50: 3740 nM
DNA-PK kinase
  IC50: 58 nM

## c1cnc(N2CC(COc3nc(N4CCOCC4)cc4ncccc34)C2)nc1 [Example 128]
[1]
  IC50: 1390 nM
DNA-PK kinase
  IC50: 30 nM

## c1cnc(NCC2CCCN(c3nc(N4CCOCC4)cc4ncccc34)C2)nc1 (stereo not drawn) [Example 36]
DNA-PK kinase
  IC50: 949 nM

## CS(=O)(=O)N1CCC(Oc2nc(N3CCOCC3)cc3ncccc23)CC1 [Example 143]
[1]
  IC50: 1800 nM
DNA-PK kinase
  IC50: 110 nM

## c1cnc(NC2CCCCN(c3nc(N4CCOCC4)cc4ncccc34)C2)nc1 (stereo not drawn) [Example 20]
[1]
  IC50: 8870 nM
DNA-PK kinase
  IC50: 159 nM

## COc1nc(NCC2CCN(c3nc(N4CCOCC4)cc4ncccc34)CC2)ncc1Cl [Example 124]
DNA-PK kinase
  IC50: 247 nM

## CC(=O)Nc1ccnc(NCC2CCN(c3nc(N4CCOCC4)cc4ncccc34)CC2)n1 [Example 126]
DNA-PK kinase
  IC50: 676 nM

## O=C(Nc1ncccn1)N1CCN(c2nc(N3CCOCC3)cc3ncccc23)CC1 [Parent compound 146]
DNA-PK kinase
  IC50: 232 nM

## c1cnc(N2CC3(CCN(c4nc(N5CCOCC5)cc5ncccc45)C3)C2)nc1 [Example 34]
DNA-PK kinase
  IC50: 588 nM

## c1cnc(NC2CCCN(c3nc(N4CCOCC4)cc4ncccc34)C2)nc1 (stereo not drawn) [Example 31]
DNA-PK kinase
  IC50: 492 nM

## c1ccc(NCC2CCN(c3nc(N4CCOCC4)cc4ncccc34)CC2)cc1 [Example 138]
DNA-PK kinase
  IC50: 501 nM

## O=S(=O)(NCC1CCN(c2nc(N3CCOCC3)cc3ncccc23)CC1)c1ccc(F)cc1 [Example 142]
DNA-PK kinase
  IC50: 808 nM

## NC(=O)N1CCC(Oc2nc(N3CCOCC3)cc3ncccc23)CC1 [Parent compound 147]
DNA-PK kinase
  IC50: 340 nM

## CN(C)C(=O)N1CC(COc2nc(N3CCOCC3)cc3ncccc23)C1 [Parent compound 149]
DNA-PK kinase
  IC50: 244 nM

## CN(C)CC1CCN(c2nc(N3CCOCC3)cc3ncccc23)CC1 [Parent compound 145]
DNA-PK kinase
  IC50: 3440 nM

## c1cnc(NCCCOc2nc(N3CCOCC3)cc3ncccc23)nc1 [Example 7]
DNA-PK kinase
  IC50: 415 nM

## CC1(CNc2ncccn2)CCN(c2nc(N3CCOCC3)cc3ncccc23)C1 (stereo not drawn) [Example 25]
DNA-PK kinase
  IC50: 224 nM

## C[S+]([O-])[C@H]1CC[C@@H](Oc2nc(N3CCOCC3)cc3ncccc23)CC1 (mixture of isomers) [Example 83]
DNA-PK kinase
  IC50: 169 nM

## CC(C)(C)OC(=O)N1CCC2CN(c3nc(N4CCOCC4)cc4ncccc34)CC21 (stereo not drawn) [Example 37]
DNA-PK kinase
  IC50: 1300 nM

## CC(C)(C)OC(=O)NCC1CCN(c2nc(N3CCOCC3)cc3ncccc23)CC1 [Example 33]
DNA-PK kinase
  IC50: 532 nM

## Nc1ccnc(NCC2CCN(c3nc(N4CCOCC4)cc4ncccc34)CC2)n1 [Parent compound 139]
DNA-PK kinase
  IC50: 126 nM

## CC(=O)NCC1CCN(c2nc(N3CCOCC3)cc3ncccc23)CC1 [Parent compound 140]
DNA-PK kinase
  IC50: 257 nM

## COc1cccnc1NCC1CCN(c2nc(N3CCOCC3)cc3ncccc23)CC1 [Example 137]
DNA-PK kinase
  IC50: 457 nM

## Fc1cccnc1NCC1CCN(c2nc(N3CCOCC3)cc3ncccc23)CC1 [Example 135]
DNA-PK kinase
  IC50: 178 nM

## c1cnc(CN2CCC3CN(c4nc(N5CCOCC5)cc5ncccc45)CC32)nc1 (stereo not drawn) [Example 42]
DNA-PK kinase
  IC50: 2260 nM

## c1cnc2cc(N3CCOCC3)nc(N3CCNCC3)c2c1 [Example 95]
DNA-PK kinase
  IC50: 5440 nM

## c1cnc2cc(N3CCOCC3)nc(N3CCC(CNc4ccncc4)CC3)c2c1 [Example 136]
DNA-PK kinase
  IC50: 340 nM

## c1cncc(C2CCCCN2c2nc(N3CCOCC3)cc3ncccc23)c1 (stereo not drawn) [Example 85]
DNA-PK kinase
  IC50: 2030 nM

## N#Cc1cc(Br)cnc1NCC1CCN(c2nc(N3CCOCC3)cc3ncccc23)CC1 [Example 125]
DNA-PK kinase
  IC50: 504 nM

## O=C(Nc1ncccn1)C1CCN(c2nc(N3CCOCC3)cc3ncccc23)CC1 [Example 26]
DNA-PK kinase
  IC50: 226 nM

## Cc1ccnc(NCC2CCN(c3nc(N4CCOCC4)cc4ncccc34)CC2)c1 [Example 134]
DNA-PK kinase
  IC50: 155 nM

## CC(C)(C)OC(=O)N1CCC(Oc2nc(N3CCOCC3)cc3ncccc23)CC1 [Example 48]
DNA-PK kinase
  IC50: 328 nM

## c1cnc(N2CC3CN(c4nc(N5CCOCC5)cc5ncccc45)CC3C2)nc1 (stereo not drawn) [Example 28]
DNA-PK kinase
  IC50: 342 nM

## c1cnc2cc(N3CCOCC3)nc(OC3CCCCC3)c2c1 [Example 9]
DNA-PK kinase
  IC50: 468 nM

## c1cnc(NCCC2CCCN(c3nc(N4CCOCC4)cc4ncccc34)C2)nc1 (stereo not drawn) [Example 23]
DNA-PK kinase
  IC50: 211 nM

## CC1CN(c2ncn[nH]2)CCC1Oc1nc(N2CCOCC2)cc2ncccc12 (stereo not drawn) [Parent compound 159]
DNA-PK kinase
  IC50: 116 nM

## c1cnc(N2CCC3(C2)CN(c2nc(N4CCOCC4)cc4ncccc24)C3)nc1 [Example 35]
DNA-PK kinase
  IC50: 720 nM

## C[C@H]1CN(c2cc3ncccc3c(O[C@H]3CC[C@@H](c4nc[nH]n4)CC3)n2)CCO1 [Example 68]
DNA-PK kinase
  IC50: 48 nM

## CC(C)(C)OC(=O)NCCC1CCN(c2nc(N3CCOCC3)cc3ncccc23)CC1 [Example 30]
DNA-PK kinase
  IC50: 369 nM

## c1cnc2cc(N3CCOCC3)nc(N3CCC(c4ncc[nH]4)CC3)c2c1 [Example 86]
DNA-PK kinase
  IC50: 223 nM

## N#Cc1cnc(NCC2CCN(c3nc(N4CCOCC4)cc4ncccc34)CC2)nc1Cl [Example 123]
DNA-PK kinase
  IC50: 232 nM

## Oc1cnc2c(Cl)c(N3CCOCC3)nc(O[C@H]3CC[C@@H](n4ccnc4)CC3)c2c1 [Parent compound 172]
DNA-PK kinase
  IC50: 242 nM

## O=C(O)c1ccnc(NCC2CCN(c3nc(N4CCOCC4)cc4ncccc34)CC2)n1 [Example 110]
DNA-PK kinase
  IC50: 88 nM

## CS(=O)(=O)NCC1CCN(c2nc(N3CCOCC3)cc3ncccc23)CC1 [Parent compound 141]
DNA-PK kinase
  IC50: 370 nM

## c1cnc2cc(N3CCOCC3)nc(OC3CCNCC3)c2c1 [Example 89]
DNA-PK kinase
  IC50: 361 nM

## O=C(NC1CCN(c2nc(N3CCOCC3)cc3ncccc23)CC1)c1ncccn1 [Example 27]
DNA-PK kinase
  IC50: 274 nM
